From ChEMBL document CHEMBL3886715, “Tetrahydroisoquinoline derivatives, pharmaceutical compositions and uses thereof” (2016)

Target: Acetyl-CoA carboxylase 2 (Homo sapiens, UniProt O00763)
Assay: Spectrophotometric 384 Well Assay: Assay reactions are then carried out in 384-well plates, with hACC2 in an appropriate dilution and at final assay concentrations (f.c.) of 100 mM Tris (pH 7.5), 10 mM trisodium citrate, 25 mM KHCO3, 10 mM MgCl2, 0.5 mg/ml BSA, 3.75 mM reduced L-glutathione, 15 U/ml lactate dehydrogenase, 0.5 mM phosphoenolpyruvate, 15 U/ml pyruvate kinase, compounds at different concentrations at final DMSO concentrations of 1%.The enzymatic reaction is then started by addition of a mixture of NADH, acetyl Coenzyme A (both […].) and ATP (500 uM f.c.). The decrease of the optical density (slope S) is then determined at 25° C. at a wavelength of 340 nm over 15 minutes in a spectrophotometric reader.Each assay microtiter plate contains wells with vehicle instead of compound as controls for the non-inhibited enzyme (100% CTL; HIGH) and wells without acetyl-CoA as controls for non-specific NADH degradation (0% CTL; LOW).

Acetyl-CoA carboxylase 2, sequence (O00763 whole entry): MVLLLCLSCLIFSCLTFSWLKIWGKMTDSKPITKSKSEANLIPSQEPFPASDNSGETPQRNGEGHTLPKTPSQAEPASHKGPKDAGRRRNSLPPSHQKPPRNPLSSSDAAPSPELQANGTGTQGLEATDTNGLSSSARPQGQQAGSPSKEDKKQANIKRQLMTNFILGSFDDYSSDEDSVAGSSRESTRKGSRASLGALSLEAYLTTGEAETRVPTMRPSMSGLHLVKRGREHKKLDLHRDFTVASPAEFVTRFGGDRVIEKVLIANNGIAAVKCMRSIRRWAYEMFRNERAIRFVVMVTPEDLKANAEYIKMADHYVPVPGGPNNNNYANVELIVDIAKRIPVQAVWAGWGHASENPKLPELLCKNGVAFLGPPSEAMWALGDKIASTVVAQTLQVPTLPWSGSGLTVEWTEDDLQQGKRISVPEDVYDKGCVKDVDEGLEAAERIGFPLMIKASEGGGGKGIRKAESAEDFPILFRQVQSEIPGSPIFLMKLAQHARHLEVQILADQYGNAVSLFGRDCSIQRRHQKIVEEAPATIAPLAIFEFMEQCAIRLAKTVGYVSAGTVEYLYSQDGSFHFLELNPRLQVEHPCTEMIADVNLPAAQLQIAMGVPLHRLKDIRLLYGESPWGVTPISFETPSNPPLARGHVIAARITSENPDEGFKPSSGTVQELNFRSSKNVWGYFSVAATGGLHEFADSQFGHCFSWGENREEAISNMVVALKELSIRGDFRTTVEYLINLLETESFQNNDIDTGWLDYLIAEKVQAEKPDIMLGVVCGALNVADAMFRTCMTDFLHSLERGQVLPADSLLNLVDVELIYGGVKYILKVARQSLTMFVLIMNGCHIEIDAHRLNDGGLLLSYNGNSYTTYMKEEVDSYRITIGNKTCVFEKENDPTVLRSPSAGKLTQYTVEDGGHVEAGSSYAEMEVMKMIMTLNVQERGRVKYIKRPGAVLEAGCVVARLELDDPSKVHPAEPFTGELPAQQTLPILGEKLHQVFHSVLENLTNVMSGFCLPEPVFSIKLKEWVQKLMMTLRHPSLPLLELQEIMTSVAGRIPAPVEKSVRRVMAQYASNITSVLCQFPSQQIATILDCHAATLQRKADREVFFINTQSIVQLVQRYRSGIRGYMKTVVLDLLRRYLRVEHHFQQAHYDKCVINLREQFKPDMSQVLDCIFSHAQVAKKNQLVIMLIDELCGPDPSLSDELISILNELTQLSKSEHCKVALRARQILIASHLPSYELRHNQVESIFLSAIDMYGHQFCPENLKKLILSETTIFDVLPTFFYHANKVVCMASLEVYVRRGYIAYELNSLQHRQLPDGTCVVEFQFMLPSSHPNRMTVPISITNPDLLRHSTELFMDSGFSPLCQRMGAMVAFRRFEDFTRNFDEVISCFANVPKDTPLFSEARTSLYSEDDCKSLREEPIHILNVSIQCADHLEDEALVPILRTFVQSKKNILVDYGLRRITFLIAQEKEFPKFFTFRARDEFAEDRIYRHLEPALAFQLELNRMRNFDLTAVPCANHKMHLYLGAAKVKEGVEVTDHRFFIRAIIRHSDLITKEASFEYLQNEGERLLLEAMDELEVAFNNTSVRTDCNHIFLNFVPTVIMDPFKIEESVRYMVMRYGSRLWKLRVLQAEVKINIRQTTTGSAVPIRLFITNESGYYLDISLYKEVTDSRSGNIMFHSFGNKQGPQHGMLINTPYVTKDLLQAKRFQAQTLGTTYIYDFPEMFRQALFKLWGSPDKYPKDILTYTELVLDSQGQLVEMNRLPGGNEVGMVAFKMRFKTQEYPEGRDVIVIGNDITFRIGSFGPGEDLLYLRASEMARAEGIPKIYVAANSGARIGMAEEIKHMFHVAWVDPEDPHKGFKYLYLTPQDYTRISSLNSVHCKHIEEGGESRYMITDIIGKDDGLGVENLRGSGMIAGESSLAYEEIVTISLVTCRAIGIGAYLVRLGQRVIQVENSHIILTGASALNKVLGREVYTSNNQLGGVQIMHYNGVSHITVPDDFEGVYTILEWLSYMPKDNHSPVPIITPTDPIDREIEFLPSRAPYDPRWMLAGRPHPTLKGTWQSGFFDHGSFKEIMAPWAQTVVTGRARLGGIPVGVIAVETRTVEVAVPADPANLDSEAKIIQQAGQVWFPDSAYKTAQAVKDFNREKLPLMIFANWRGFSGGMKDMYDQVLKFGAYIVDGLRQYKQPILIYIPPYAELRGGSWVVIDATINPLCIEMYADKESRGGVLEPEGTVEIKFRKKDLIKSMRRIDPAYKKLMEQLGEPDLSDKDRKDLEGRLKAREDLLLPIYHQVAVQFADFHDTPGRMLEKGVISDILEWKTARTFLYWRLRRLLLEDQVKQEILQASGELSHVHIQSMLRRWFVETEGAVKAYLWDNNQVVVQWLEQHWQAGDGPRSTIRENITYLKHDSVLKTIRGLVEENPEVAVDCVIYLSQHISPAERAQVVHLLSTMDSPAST

IC50 [nM]	Structure (SMILES)
806	CC(=O)N[C@@H](C)c1ccc(CN2CCc3cc(OCC4CC4)ccc3C2C(=O)O)cc1 (some centres not stated)
22	C[C@H](NC(=O)N(C)C)c1ccc(CN2Cc3ccc(OCC4CC4)cc3C(F)C2)cc1 (some centres not stated)
